Results: paper PMC11898488, “A2A Adenosine Receptor Antagonists and Their Efficacy in Rat Models of Parkinson’s Disease” (Cells, 2025)
Read-outs that look alike come from different tables or passages of the source.

Key:
human A2AAR [1] = molecular target: T1, human A2AAR (Homo sapiens, UniProt P29274); settings: cited from earlier work
T1 construct: expressed in transfected cells; host or cells: CHO cells, crude membrane fractions

human A2AAR [2] = molecular target: T1, human A2AAR; test: Radioligand binding, displacement of [3H]NECA at human A2AAR in CHO cells; settings: for Selectivity A1/A2A / Selectivity A3/A2A: ratio of Ki values at human ARs; for Ki: [3H]-NECA displacement, geometric mean with 95% confidence limits, read-out: Ki A2A
Method: (§1) The radioligand binding experiments were carried out exactly as described previously. For A1AR binding, 1 nM [^3H]CCPA was used as a radioligand, whereas 30 and 10 nM [^3H]NECA were used for A2A and A3 ARs, respectively. Nonspecific binding was determined in the presence of 1 mM theophylline (A1AR) or […] R-PIA (A2A and A3 ARs). Ki values were calculated from competition curves by nonlinear curve fitting with the program SCTFIT [31].
(§2) CHO cells stably transfected with human ARs were grown adherently and maintained in Dulbecco’s Modified Eagles Medium with nutrient mixture F12 (DMEM/F12) without nucleosides, containing 10% fetal calf serum, penicillin (100 U/mL), streptomycin (100 μg/mL), L-glutamine (2 mM), and Geneticin (G-418, 0.2 mg/mL) at 37 °C in 5% CO2/95% air, as described earlier. For radioligand binding studies and measurement of adenylyl cyclase activity, crude membrane fractions were prepared from fresh or frozen cells with two different protocols described earlier. The determination of adenylyl cyclase activity followed the procedure described earlier. IC50 values for the inhibition of adenylyl cyclase stimulated (in the case of A2BAR) with 5 μM NECA were calculated with the Hill equation and converted to Ki values with the Cheng and Prusoff equation [32].
(§3) [^3H]CCPA (2-chloro-N^6-cyclopentylAdo) and [^3H]NECA (5′-N-ethylcarboxamidoAdo) were used as specific radioligands at A1ARand A2A / A3 ARs, respectively. Furthermore, the ability of the same compounds to inhibit NECA-stimulated adenylyl cyclase activity was evaluated at the A2BAR subtype. The results of the binding studies (A1, A2A, and A3 ARs) and functional data (A2BAR) are reported in Table 1 as Ki or IC50 values in nM, together with the data on the reference compounds 1–3.

human A3AR [3] = molecular target: T2, human A3AR (Homo sapiens, UniProt P0DMS8); settings: [3H]-NECA displacement, human A3AR in CHO cells; geometric mean with 95% confidence limits; read-out: Ki A3; cited from earlier work
T2 construct: expressed in transfected cells; host or cells: CHO cells, crude membrane fractions
T2 sequence (P0DMS8 1-318): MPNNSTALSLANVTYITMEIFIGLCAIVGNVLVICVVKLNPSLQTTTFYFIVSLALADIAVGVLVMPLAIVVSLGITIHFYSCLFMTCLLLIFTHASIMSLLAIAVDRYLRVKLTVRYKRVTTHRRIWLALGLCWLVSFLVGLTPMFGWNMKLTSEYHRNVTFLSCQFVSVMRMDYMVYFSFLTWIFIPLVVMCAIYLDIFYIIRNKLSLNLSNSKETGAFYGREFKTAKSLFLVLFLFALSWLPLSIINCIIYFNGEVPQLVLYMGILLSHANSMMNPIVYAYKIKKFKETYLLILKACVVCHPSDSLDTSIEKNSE

human A1AR [4] = molecular target: T3, human A1AR (Homo sapiens, UniProt P30542); settings: [3H]-CCPA displacement, human A1AR in CHO cells; geometric mean with 95% confidence limits; read-out: Ki A1; cited from earlier work
T3 construct: expressed in transfected cells; host or cells: CHO cells, crude membrane fractions
T3 sequence (P30542 1-326): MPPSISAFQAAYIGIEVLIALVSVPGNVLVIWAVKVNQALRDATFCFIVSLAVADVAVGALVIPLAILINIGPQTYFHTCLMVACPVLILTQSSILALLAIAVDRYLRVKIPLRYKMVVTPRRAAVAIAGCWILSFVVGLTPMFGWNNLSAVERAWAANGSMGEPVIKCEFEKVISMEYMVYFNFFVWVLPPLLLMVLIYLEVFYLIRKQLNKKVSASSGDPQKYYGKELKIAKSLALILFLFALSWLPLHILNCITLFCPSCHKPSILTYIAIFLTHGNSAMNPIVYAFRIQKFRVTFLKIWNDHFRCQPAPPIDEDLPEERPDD

human A2BAR [5] = molecular target: T4, human A2BAR (Homo sapiens, UniProt P29275); settings: inhibition of NECA-stimulated AC activity, CHO cells expressing human A2BAR; geometric mean with 95% confidence limits; read-out: IC50 A2B; cited from earlier work
T4 construct: expressed in transfected cells; host or cells: CHO cells, crude membrane fractions
T4 sequence (P29275 1-332): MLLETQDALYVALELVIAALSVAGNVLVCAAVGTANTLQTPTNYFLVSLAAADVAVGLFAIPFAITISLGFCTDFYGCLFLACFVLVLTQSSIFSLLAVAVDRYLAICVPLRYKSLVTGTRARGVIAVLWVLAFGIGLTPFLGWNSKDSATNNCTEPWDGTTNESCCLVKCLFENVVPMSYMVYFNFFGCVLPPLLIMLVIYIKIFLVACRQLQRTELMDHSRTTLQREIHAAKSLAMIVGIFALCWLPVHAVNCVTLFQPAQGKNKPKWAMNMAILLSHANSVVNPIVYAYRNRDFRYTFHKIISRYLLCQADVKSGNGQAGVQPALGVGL

human A2BAR [6] = molecular target: T4, human A2BAR; test: Inhibition of NECA-stimulated adenylyl cyclase activity at human A2BAR; assay type: biochemical; settings: inhibition of NECA-stimulated AC activity, CHO cells expressing human A2BAR, read-out: IC50 A2B
Method: as §2, §3

human A3AR [7] = molecular target: T2, human A3AR; test: Radioligand binding, displacement of [3H]NECA at human A3AR in CHO cells; settings: [3H]-NECA displacement, read-out: Ki A3
Method: as §1, §2, §3

human A1AR [8] = molecular target: T3, human A1AR; test: Radioligand binding, displacement of [3H]CCPA at human A1AR in CHO cells; settings: for Ki: [3H]-CCPA displacement, geometric mean with 95% confidence limits, read-out: Ki A1
Method: as §1, §2, §3

[9] = [3H]-NECA displacement, human A2AAR in CHO cells, geometric mean with 95% confidence limits, read-out: Ki A2A
[10] = geometric mean with 95% confidence limits

T1 sequence (P29274 whole entry): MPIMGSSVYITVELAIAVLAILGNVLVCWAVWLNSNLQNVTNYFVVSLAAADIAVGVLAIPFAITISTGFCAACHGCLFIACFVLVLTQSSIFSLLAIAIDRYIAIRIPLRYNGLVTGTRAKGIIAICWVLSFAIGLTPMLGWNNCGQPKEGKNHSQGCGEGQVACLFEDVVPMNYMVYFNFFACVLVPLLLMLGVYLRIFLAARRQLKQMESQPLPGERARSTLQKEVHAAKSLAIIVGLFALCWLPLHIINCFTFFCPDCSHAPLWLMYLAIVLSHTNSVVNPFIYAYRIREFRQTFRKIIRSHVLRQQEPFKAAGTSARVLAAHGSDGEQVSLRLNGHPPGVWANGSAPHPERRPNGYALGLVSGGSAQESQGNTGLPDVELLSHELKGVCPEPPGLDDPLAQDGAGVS

Row | Selectivity A1/A2A (human A2AAR [2]) | Selectivity A3/A2A (human A2AAR [2]) | IC50 (human A2BAR [6]; [10]) [µM] | Ki (human A2AAR [2]; human A2AAR in CHO cells) [nM] | Ki (human A3AR [7]; [10]) [µM] | Ki (human A1AR [8]) [nM] | IC50 (human A2BAR [6]; bound given in µM) [µM] | Affinity at A2A AR, in words (human A2AAR [2]; human A2AAR in CHO cells) | Ki (human A3AR [7]; bound given in µM) [µM] | Affinity at A1 AR, in words (human A1AR [8]) | Structure (SMILES) | Ki (human A2AAR [1]; read-out: Ki at the human A2AAR) [nM] | Ki (human A2AAR [1]; [9]) [nM] | Ki (human A3AR [3]) [nM] | Ki (human A1AR [4]) [nM] | IC50 (human A2BAR [5]) [nM]
1 | – | – | – | – | – | – | – | – | – | – | CCOc1nc2c(N)ncnc2n1CC [ANR 94, 9-ethyl-8-ethoxyadenine, reference compound] | 46 | – | – | – | –
2 | 1.4 | 59 | – | – | – | – | – | – | – | – | CCn1cnc2c(N)nc(OCCc3ccccc3)nc21 [Compound 3, 9-ethyl-2-phenethoxyadenine] | – | 120 | 7150 | 170 | 45800
3 | 2.7 | 3.5 | 4.99 | 7.7 | 0.027 | 21 | – | – | – | – | CCn1c(-c2cccs2)nc2c(N)nc(OCCc3ccccc3)nc21 [Compound 6] | – | – | – | – | –
4 | 6.3 | 18 | 38.9 | 81 | 1.45 | 509 | – | – | – | – | CCn1c(C2CCCO2)nc2c(N)nc(OCCc3ccccc3)nc21 (centres unmarked) [Compound 7] | – | – | – | – | –
5 | 3.0 | 19 | 63.7 | 655 | 12.3 | 1990 | – | – | – | – | CCn1cnc2c(N)nc(OCCc3ccc(OC)cc3)nc21 [Compound 9, 9-ethyl-2-(4-methoxyphenyl)ethoxyadenine] | – | – | – | – | –
6 | 7.1 | 146 | 9.19 | 28 | 4.06 | 197 | – | – | – | – | CCn1c(Br)nc2c(N)nc(OCCc3ccc(OC)cc3)nc21 [Compound 10, 8-bromo-9-ethyl-2-(4-methoxyphenethoxy)-9H-purin-6-amine] | – | – | – | – | –
7 | 5.5 | 10 | – | 7.1 | 0.073 | 39 | > 100 | – | – | – | CCn1c(-c2ccco2)nc2c(N)nc(OCCc3ccc(OC)cc3)nc21 [Compound 11] | – | – | – | – | –
8 | 3.2 | – | – | 7080 | – | 22900 | > 100 | µM affinity | > 100 | µM affinity | CCn1cnc2c(N)nc(Oc3ccc(CCO)cc3)nc21 [Compound 13, 2-(4-((6-amino-9-ethyl-9H-purin-2-yl)oxy)phenyl)ethan-1-ol] | – | – | – | – | –

Row | Structure (SMILES) | Selectivity A1/A2A (human A2AAR [2]) | Selectivity A3/A2A (human A2AAR [2]) | IC50 (human A2BAR [6]; [10]) [µM] | Ki (human A2AAR [2]; human A2AAR in CHO cells) [nM] | Ki (human A3AR [7]; [10]) [µM] | Ki (human A1AR [8]) [nM] | IC50 (human A2BAR [6]; bound given in µM) [µM] | Affinity at A2A AR, in words (human A2AAR [2]; human A2AAR in CHO cells) | Ki (human A3AR [7]; bound given in µM) [µM] | Affinity at A1 AR, in words (human A1AR [8]) | Ki (human A2AAR [1]; read-out: Ki at the human A2AAR) [nM] | Ki (human A2AAR [1]; [9]) [nM] | Ki (human A3AR [3]) [nM] | Ki (human A1AR [4]) [nM] | IC50 (human A2BAR [5]) [nM]
9 | CCn1c(-c2ccco2)nc2c(N)nc(OCCc3ccccc3)nc21 [Compound 2, 9-ethyl-8-furyl-2-phenetoxyadenine] | 2.6 | 7.3 | – | – | – | – | – | – | – | – | – | 2.2 | 16 | 5.8 | 521
